The target of assay [1] is T1, human leukocyte elastase (hLE) (Homo sapiens, UniProt P08246).
T1 construct: Neutrophils (1.4 billion) were isolated from whole blood obtained from a single healthy laboratory donor; from tissue; host or cells: neutrophils from whole blood of a single healthy donor
T1 sequence (P08246 30-247 limits assumed): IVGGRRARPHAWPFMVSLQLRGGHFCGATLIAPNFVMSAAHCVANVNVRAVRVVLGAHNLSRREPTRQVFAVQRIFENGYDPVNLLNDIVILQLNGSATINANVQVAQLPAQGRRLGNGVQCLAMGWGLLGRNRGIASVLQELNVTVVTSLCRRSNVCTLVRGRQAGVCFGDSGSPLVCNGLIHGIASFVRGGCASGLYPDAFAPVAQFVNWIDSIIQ
As to the kind of experiment: In vitro inhibition of hLE (cleavage of MeOSuc-AAPV-NA). It is filed as biochemical. As for the experimental part: (§1) The enzymatic activity was assayed with MeOSuc-AAPV-NA for hLE determination and Suc-AAPF-NA for hCG determination (both in 100 mM Hepes buffer, pH 7.4, containing 0.05% of the […] detergent Brij-35). The activities of the individual enzymatic fractions were 100% free from cross-contamination. […] The fractions containing hLE and hCG were dialyzed each against 0.1% pyridinium acetate, pH 5.3, divided into 20 aliquots, lyophilized, and stored at −20 ° C. until use.
(v) Inhibition experiments with hLE: Peptides were dissolved in 100 mM Hepes buffer pH 7.4 containing 0.1% Brij-35 with 10%. DMSO to yield 300 μM solutions, which were used to make further dilutions with the same buffer, and 80 μL aliquots were added in duplicates to 96-well plates. The substrate, 600 μM MeOSuc-AAPV-NA in the same buffer with 5% DMSO, was added to each well in addition to the blank wells, and the plate was placed in the plate reader equilibrated to 37 C (Dynateck MR-6000). Lyophilized aliquots of hLE were dissolved in 1600 μL of 100 mM Hepes buffer without DMSO, and 80 μL of the enzyme solution was added to the peptides and substrate to initiate the reaction. […] The final volume was 240 μL containing: 5% DMSO, 1-100 μM of peptide, 200 μM substrate, and 0.75 μg (˜25 picomol) enzyme.
(viii) Calculations: For hLE, V is determined by fitting a linear equation to the first 6 time-points (10 min) of the kinetics data using the least squares method. […] Several inhibitor concentration in duplicates and two control wells were used to fit a linear equation to graphs of Vo/Vi−1 vs. [I] for each inhibitor using the least squares method (8 data points for each inhibitor). From calculating the error in the slope of the equation, the relative error for Ki was deduced:
Ki={slope*(1+[S]/Km)}^−1because Ki=[I]*{(1+[S]/Km)*(Vo/Vi−1)}^−1.
The hLE inhibitory capability of CRP-derived peptides was evaluated by inhibiting the enzymatic cleavage of MeOSuc-AAPV-NA as described in Materials and Methods (section v).

In assay [2] the target is T2, human leukocyte cathepsin G (hCG) (Homo sapiens, UniProt P08311).
T2 construct: Neutrophils (1.4 billion) were isolated from whole blood obtained from a single healthy laboratory donor; from tissue; host or cells: neutrophils from whole blood of a single healthy donor
T2 sequence (P08311 21-243 limits assumed): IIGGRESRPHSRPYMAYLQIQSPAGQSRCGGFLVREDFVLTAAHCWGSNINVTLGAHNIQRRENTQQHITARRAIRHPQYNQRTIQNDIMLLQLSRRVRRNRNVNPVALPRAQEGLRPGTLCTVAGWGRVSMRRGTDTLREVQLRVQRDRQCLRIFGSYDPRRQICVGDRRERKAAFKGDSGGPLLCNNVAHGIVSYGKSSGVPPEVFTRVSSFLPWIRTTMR
The assay is described as follows: In vitro inhibition of hCG (cleavage of Suc-AAPF-NA). It is filed as biochemical. As to the method:
as §1
vi) Inhibition experiments with hCG: Similar conditions to hLE inhibition experiments were used except the substrate: 80 μL of 1.80 mM Suc-AAPF-NA. The enzyme was dissolved in 800 μL buffer, and the reaction was monitored every 6 min for 1 hour. The final volume was 240 μL containing: 5% DMSO, 1-100 μM peptide, 600 μM substrate, and 1.2 μg enzyme (about 40 picomol).
For hCG, V is determined by fitting a quadratic equation to the total kinetic data (60 min), using the least squares method and calculating V at t=0.
The hCG inhibitory capability of CRP-derived peptides was evaluated by inhibiting the enzymatic cleavage of Suc-AAPF-NA as described in Materials and Methods (section vi).

[3] abbreviates: hLE Ki [μM], Table 1, substrate MeOSuc-AAPV-NA 200 μM, pH 7.4, 37 C.
Where [4] appears, read: hCG Ki [μM], Table 1, substrate Suc-AAPF-NA 600 μM, pH 7.4.
Where [5] appears, read: hLE Ki [μM], Table 2, substrate MeOSuc-AAPV-NA 200 μM, pH 7.4, 37 C.
Where [6] appears, read: hCG Ki [μM], Table 2, substrate Suc-AAPF-NA 600 μM, pH 7.4.

Entries after “also recorded” stand apart in the source; their conditions may differ. Where a SMILES comes first, the peptide text is derived from it.

A word on the Ki: it is a measure of affinity in units of concentration, obtained from inhibition or displacement. A lower Ki goes with tighter binding. In the case of `CC[C@H](C)[C@H](NC(=O)[C@H](CC(=O)O)NC(=O)[C@H](CCCCN)NC(=O)[C@H](CO)NC(=O)[C@@H](N)Cc1c[nH]c2ccccc12)C(=O)NCC(=O)N[C@@H](Cc1ccc(O)cc1)C(=O)N[C@@H](CO)C(=O)N[C@@H](Cc1ccccc1)C(=O)N[C@H](C(=O)N[C@H](C(=O)NCC(=O)NCC(=O)N[C@@H](CO)C(=O)N[C@@H](CCC(=O)O)C(=O)O)C(C)C)[C@@H](C)O` [Peptide 7, Trp-Ser-Lys-Asp-Ile-Gly-Tyr-Ser-Phe-Thr-Val-Gly-Gly-Ser-Glu] (H-WSKDIGYSFTVGGSE-OH), the Ki in assay [1] (setting [3]) and in assay [2] (setting [4]) was greater than 200 µM throughout.

`CC[C@H](C)[C@H](NC(=O)[C@H](CCC(=O)O)NC(=O)[C@H](CO)NC(=O)CNC(=O)CNC(=O)[C@@H](NC(=O)[C@@H](NC(=O)[C@H](Cc1ccccc1)NC(=O)[C@H](CO)NC(=O)[C@H](Cc1ccc(O)cc1)NC(=O)CN)[C@@H](C)O)C(C)C)C(=O)N[C@@H](CC(C)C)C(=O)N[C@@H](Cc1ccccc1)C(=O)N[C@@H](CCC(=O)O)C(=O)N[C@H](C(=O)O)C(C)C` [Peptide 8, Gly-Tyr-Ser-Phe-Thr-Val-Gly-Gly-Ser-Glu-Ile-Leu-Phe-Glu-Val] (H-GYSFTVGGSEILFEV-OH): the Ki in assay [1] (setting [3]) and in assay [2] (setting [4]) was greater than 200 µM throughout.

As to `CC[C@H](C)[C@H](NC(=O)[C@H](CCC(=O)O)NC(=O)[C@H](CO)NC(=O)CNC(=O)CNC(=O)[C@@H](N)C(C)C)C(=O)N[C@@H](CC(C)C)C(=O)N[C@@H](Cc1ccccc1)C(=O)N[C@@H](CCC(=O)O)C(=O)N[C@H](C(=O)N1CCC[C@H]1C(=O)N[C@@H](CCC(=O)O)C(=O)N[C@H](C(=O)N[C@H](C(=O)N[C@H](C(=O)O)C(C)C)[C@@H](C)O)C(C)C)C(C)C` [Peptide 9, Val-Gly-Gly-Ser-Glu-Ile-Leu-Phe-Glu-Val-Pro-Glu-Val-Thr-Val] (H-VGGSEILFEVPEVTV-OH), the Ki in assay [1] (setting [3]) and in assay [2] (setting [4]) was greater than 200 µM in each case.

For the molecule `CC[C@H](C)[C@H](N)C(=O)N[C@@H](CC(C)C)C(=O)N[C@@H](Cc1ccccc1)C(=O)N[C@@H](CCC(=O)O)C(=O)N[C@H](C(=O)N1CCC[C@H]1C(=O)N[C@@H](CCC(=O)O)C(=O)N[C@H](C(=O)N[C@H](C(=O)N[C@H](C(=O)N[C@@H](C)C(=O)N1CCC[C@H]1C(=O)N[C@H](C(=O)N[C@@H](Cc1c[nH]cn1)C(=O)N[C@H](C(=O)O)[C@@H](C)CC)C(C)C)C(C)C)[C@@H](C)O)C(C)C)C(C)C` [Peptide 10, Ile-Leu-Phe-Glu-Val-Pro-Glu-Val-Thr-Val-Ala-Pro-Val-His-Ile] (H-ILFEVPEVTVAPVHI-OH; N-terminus and C-terminus assumed), the “hLE inhibitory activity (in words)” value in assay [1] is reported as “two orders of magnitude less potent than peptide 6”. For the same molecule, the Ki in assay [1] (hLE inhibitory activity range) lay in the range of 50 to 100 µM; in assay [2] (hCG inhibitory activity range), 150 to 200 µM.

On to `CC[C@H](C)[C@H](N)C(=O)N[C@@H](CC(C)C)C(=O)N[C@H](C(=O)N[C@@H](Cc1ccccc1)C(=O)N[C@@H](Cc1c[nH]c2ccccc12)C(=O)N[C@@H](CO)C(=O)N[C@@H](CCCCN)C(=O)N[C@@H](CC(=O)O)C(=O)N[C@H](C(=O)NCC(=O)N[C@@H](Cc1ccc(O)cc1)C(=O)N[C@@H](CO)C(=O)N[C@@H](Cc1ccccc1)C(=O)N[C@H](C(=O)O)[C@@H](C)O)[C@@H](C)CC)[C@@H](C)CC` [Peptide 11, Ile-Leu-Ile-Phe-Trp-Ser-Lys-Asp-Ile-Gly-Tyr-Ser-Phe-Thr] (H-ILIFWSKDIGYSFT-OH; N-terminus and C-terminus assumed), for which the “hLE inhibitory activity (in words)” value in assay [1] is “dramatic loss”. In addition, the “fold decrease in hLE inhibitory activity compared to peptide 6” value in assay [1] (relative to peptide 6) was “around 20 fold”. In addition, the “hCG inhibitory activity (in words)” value in assay [2] was “dramatic loss”.

Regarding `CC[C@H](C)[C@H](N)C(=O)N[C@@H](Cc1ccccc1)C(=O)N[C@@H](Cc1c[nH]c2ccccc12)C(=O)N[C@@H](CO)C(=O)N[C@@H](CCCCN)C(=O)N[C@@H](CC(=O)O)C(=O)N[C@H](C(=O)NCC(=O)N[C@@H](Cc1ccc(O)cc1)C(=O)N[C@@H](CO)C(=O)N[C@@H](Cc1ccccc1)C(=O)N[C@H](C(=O)O)[C@@H](C)O)[C@@H](C)CC` [Peptide 12, Ile-Phe-Trp-Ser-Lys-Asp-Ile-Gly-Tyr-Ser-Phe-Thr] (H-IFWSKDIGYSFT-OH), the “hLE inhibitory activity (in words)” value in assay [1] is reported as “totally abolished the inhibitory activity”. For the same molecule, the Ki in assay [1] (setting [5]) and in assay [2] (setting [6]) was greater than 200 µM throughout.

Regarding `CC[C@H](C)[C@H](NC(=O)[C@H](CC(=O)O)NC(=O)[C@H](CCCCN)NC(=O)[C@H](CO)NC(=O)[C@H](Cc1c[nH]c2ccccc12)NC(=O)[C@H](Cc1ccccc1)NC(=O)[C@@H](NC(=O)[C@H](CC(C)C)NC(=O)[C@@H](NC(=O)[C@@H](N)CCC(=O)O)[C@@H](C)CC)[C@@H](C)CC)C(=O)NCC(=O)N[C@@H](Cc1ccc(O)cc1)C(=O)O` [Peptide 13, Glu-Ile-Leu-Ile-Phe-Trp-Ser-Lys-Asp-Ile-Gly-Tyr] (H-EILIFWSKDIGY-OH; N-terminus and C-terminus assumed), in assay [1], the “hLE inhibitory activity (in words)” value is given as “diminished hLE inhibitory activity”. In addition, in assay [2], the “hCG inhibitory activity (in words)” value is “diminished inhibitory activity”.

`CC[C@H](C)[C@H](NC(=O)[C@H](CC(=O)O)NC(=O)[C@H](CCCCN)NC(=O)[C@H](CO)NC(=O)[C@H](Cc1c[nH]c2ccccc12)NC(=O)[C@H](Cc1ccccc1)NC(=O)[C@@H](NC(=O)[C@H](CC(C)C)NC(=O)[C@@H](NC(=O)[C@@H](N)CCC(=O)O)[C@@H](C)CC)[C@@H](C)CC)C(=O)O` [Peptide 14, Glu-Ile-Leu-Ile-Phe-Trp-Ser-Lys-Asp-Ile] (H-EILIFWSKDI-OH; N-terminus and C-terminus assumed): in assay [1], the “hLE inhibitory activity (in words)” value is recorded as “still retains significant inhibitory activity; also recorded: retain significant inhibitory activity”. Also, in assay [2], the “hCG inhibitory activity (in words)” value was “retain significant inhibitory activity”.

Turning to `CC[C@H](C)[C@H](NC(=O)[C@H](CC(C)C)NC(=O)[C@@H](NC(=O)[C@@H](N)CCC(=O)O)[C@@H](C)CC)C(=O)N[C@@H](Cc1ccccc1)C(=O)N[C@@H](Cc1c[nH]c2ccccc12)C(=O)N[C@@H](CO)C(=O)N[C@@H](CCCCN)C(=O)O` [Peptide 15, Glu-Ile-Leu-Ile-Phe-Trp-Ser-Lys] (H-EILIFWSK-OH), the “hLE inhibitory activity (in words)” value in assay [1] is reported as “total loss of inhibitory activity”. The Ki in assay [1] (setting [5]) and in assay [2] (setting [6]) was greater than 200 µM each time.

As for `CC[C@H](C)[C@H](NC(=O)[C@H](CC(=O)O)NC(=O)[C@H](CCCCN)NC(=O)[C@@H](N)CO)C(=O)NCC(=O)N[C@@H](Cc1ccc(O)cc1)C(=O)N[C@@H](CO)C(=O)O` [Peptide 16, Ser-Lys-Asp-Ile-Gly-Tyr-Ser] (H-SKDIGYS-OH), the “hLE inhibitory activity (in words)” value in assay [1] is “totally inactive”. Further, the Ki in assay [1] (setting [5]) and in assay [2] (setting [6]) was greater than 200 µM throughout.
